Measured values taken from ChEMBL document CHEMBL1131167, “Structure-activity relationships of a series of analogues of the octadecaneuropeptide ODN on calcium mobilization in rat astrocytes” (1998).
Peptide text beside a SMILES is read from it.

Columns and labels:
Format in all cases: functional
[1] = species on record: Rattus norvegicus; test: Effect of compound on basal [Ca2+] and ODN induced [Ca2+] increase in cultured rat astrocytes measured at 10*e-8+10e-6 conc (M) in the presence of [Ala15]ODN. p<0.001
[2] = species on record: Rattus norvegicus; test: Effect of compound on basal [Ca2+] and ODN induced [Ca2+] increase in cultured rat astrocytes measured at 10*e-8 conc (M).
[3] = species on record: Rattus norvegicus; test: Effect of compound on basal [Ca2+] and ODN induced [Ca2+] increase in cultured rat astrocytes measured at 10*e-8+10e-6 conc (M) in the presence of [D-Leu15]-ODN
[4] = species on record: Rattus norvegicus; test: Effect of compound on basal [Ca2+] and ODN induced [Ca2+] increase in cultured rat astrocytes measured at 10*e-8+10e-6 conc (M) in the presence of [D-Thr9]-ODN
[5] = species on record: Rattus norvegicus; test: Effect of compound on basal [Ca2+] and ODN induced [Ca2+] increase in cultured rat astrocytes measured at 10*e-8+10e-6 conc (M) in the presence of [Ala9]ODN. p<0.001
[6] = species on record: Rattus norvegicus; test: Effect of compound on basal [Ca2+] and ODN induced [Ca2+] increase in cultured rat astrocytes measured at 10*e-8+10e-6 conc (M) in the presence of [D-Leu5-]OP
[7] = species on record: Rattus norvegicus; test: Effect of compound on basal [Ca2+] and ODN induced [Ca2+] increase in cultured rat astrocytes measured at 10*e-6 conc (M)

Row | SMILES | [Ca2+] variation [1] [nM] | [Ca2+] variation [2] [nM] | [Ca2+] variation [3] [nM] | [Ca2+] variation [4] [nM] | [Ca2+] variation [5] [nM] | [Ca2+] variation [6] [nM] | [Ca2+] variation [7] [nM]
1 | CC(C)C[C@H](NC(=O)CNC(=O)[C@@H]1CCCN1C(=O)[C@H](CCCN=C(N)N)NC(=O)[C@H](CC(=O)O)NC(=O)[C@@H](NC(=O)[C@H](CC(N)=O)NC(=O)[C@@H](NC(=O)[C@H](CC(=O)O)NC(=O)CNC(=O)[C@@H](NC(=O)[C@@H](NC(=O)[C@H](C)NC(=O)[C@@H](N)CCC(N)=O)[C@@H](C)O)C(C)C)C(C)C)[C@@H](C)O)C(=O)N[C@@H](CC(C)C)C(=O)N[C@@H](CC(=O)O)C(=O)N[C@@H](CC(C)C)C(=O)N[C@@H](CCCCN)C(=O)O [QATVGDVNTDRPGLLDLK] (H-QATVGDVNTDRPGLLDLK-OH) | 36 | 62 | 25 | 31 | 39 | 39 | 
2 | CC(C)C[C@H](NC(=O)CNC(=O)[C@@H]1CCCN1C(=O)[C@@H](N)CCCNC(=N)N)C(=O)N[C@@H](C)C(=O)N[C@@H](CC(=O)O)C(=O)N[C@@H](CC(C)C)C(=O)N[C@@H](CCCCN)C(=O)O (H-RPGLADLK-OH) |  |  |  |  |  |  | 37
